Test results reported in ChEMBL document CHEMBL1201862, “PubChem BioAssay data set” (2004).
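All cell lines were grown in 96-well plates and treated with compound for 48 hours. The concentration for 50% growth inhibition is given as GI50.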 Active and inactive are the calls of the source. No stated cut-off is given here; in the data, active = GI50 up to about 1.1 µM and inactive = higher.

How the values were obtained:
Assay in all cases: NCI-60 cell line screen, 48 h
SNB-78 = tested on: SNB-78
SN12C = tested on: SN12C
SR = tested on: SR
M19-MEL = tested on: M19-MEL
M14 = tested on: M14
KM12 = tested on: KM12
KM-20L2 = tested on: KM-20L2
RXF 393 = tested on: RXF 393
SNB-19 = tested on: SNB-19
MOLT-4 = tested on: MOLT-4
U-251 = tested on: U-251
SK-MEL-2 = tested on: SK-MEL-2
LOX IMVI = tested on: LOX IMVI
NCI-H226 = tested on: NCI-H226
786-0 = tested on: 786-0
SF-268 = tested on: SF-268
NCI-H23 = tested on: NCI-H23
IGROV-1 = tested on: IGROV-1
HL-60 = tested on: HL-60
UO-31 = tested on: UO-31
OVCAR-8 = tested on: OVCAR-8
UACC-257 = tested on: UACC-257
EKVX = tested on: EKVX
RXF 631 = tested on: RXF 631
DMS-114 = tested on: DMS-114
SW-620 = tested on: SW-620
HOP-62 = tested on: HOP-62
OVCAR-3 = tested on: OVCAR-3
HCT-116 = tested on: HCT-116
HT-29 = tested on: HT-29
OVCAR-5 = tested on: OVCAR-5
HOP-92 = tested on: HOP-92
DLD-1 = tested on: DLD-1
XF498 = tested on: XF498
SK-OV-3 = tested on: SK-OV-3
DMS-273 = tested on: DMS-273
NCI-H460 = tested on: NCI-H460
SF-295 = tested on: SF-295
CCRF-CEM = tested on: CCRF-CEM
A549 = tested on: A549
HCT-15 = tested on: HCT-15
SF-539 = tested on: SF-539
COLO 205 = tested on: COLO 205
K562 = tested on: K562
TK-10 = tested on: TK-10
HOP-18 = tested on: HOP-18
UACC-62 = tested on: UACC-62
OVCAR-4 = tested on: OVCAR-4
RPMI-8226 = tested on: RPMI-8226
CAKI-1 = tested on: CAKI-1
SNB-75 = tested on: SNB-75
A498 = tested on: A498
LXFL 529 = tested on: LXFL 529
Malme-3M = tested on: Malme-3M
SK-MEL-5 = tested on: SK-MEL-5

Structure (SMILES): COc1cccc(N2C(=O)C3C4C=C5c6ccccc6N(c6ccccc6)C5(C3C2=O)[C@H]2C(=O)N(c3cccc(OC)c3)C(=O)[C@@H]42)c1 (stereo not given in full)
- GI50 (SNB-78): > 100 µM (inactive)
- GI50 (SN12C): > 100 µM (inactive)
- GI50 (SR): > 100 µM (inactive)
- GI50 (M19-MEL): > 100 µM (inactive)
- GI50 (M14): > 100 µM (inactive)
- GI50 (KM12): > 100 µM (inactive)
- GI50 (KM-20L2): > 100 µM (inactive)
- GI50 (RXF 393): > 100 µM (inactive)
- GI50 (SNB-19): > 100 µM (inactive)
- GI50 (MOLT-4): > 100 µM (inactive)
- GI50 (U-251): > 100 µM (inactive)
- GI50 (SK-MEL-2): > 100 µM (inactive)
- GI50 (LOX IMVI): > 100 µM (inactive)
- GI50 (NCI-H226): > 100 µM (inactive)
- GI50 (786-0): > 100 µM (inactive)
- GI50 (SF-268): > 100 µM (inactive)
- GI50 (NCI-H23): > 100 µM (inactive)
- GI50 (IGROV-1): > 100 µM (inactive)
- GI50 (HL-60): > 100 µM (inactive)
- GI50 (UO-31): > 100 µM (inactive)
- GI50 (OVCAR-8): > 100 µM (inactive)
- GI50 (UACC-257): > 100 µM (inactive)
- GI50 (EKVX): > 100 µM (inactive)
- GI50 (RXF 631): > 100 µM (inactive)
- GI50 (DMS-114): > 100 µM (inactive)
- GI50 (SW-620): > 100 µM (inactive)
- GI50 (HOP-62): > 100 µM (inactive)
- GI50 (OVCAR-3): > 100 µM (inactive)
- GI50 (HCT-116): > 100 µM (inactive)
- GI50 (HT-29): > 100 µM (inactive)
- GI50 (OVCAR-5): > 100 µM (inactive)
- GI50 (HOP-92): > 100 µM (inactive)
- GI50 (DLD-1): > 100 µM (inactive)
- GI50 (XF498): > 100 µM (inactive)
- GI50 (SK-OV-3): > 100 µM (inactive)
- GI50 (DMS-273): > 100 µM (inactive)
- GI50 (NCI-H460): > 100 µM (inactive)
- GI50 (SF-295): > 100 µM (inactive)
- GI50 (CCRF-CEM): > 100 µM (inactive)
- GI50 (A549): > 100 µM (inactive)
- GI50 (HCT-15): > 100 µM
- GI50 (SF-539): > 100 µM (inactive)
- GI50 (COLO 205): > 100 µM (inactive)
- GI50 (K562): > 100 µM (inactive)
- GI50 (TK-10): > 100 µM (inactive)
- GI50 (HOP-18): > 100 µM (inactive)
- GI50 (UACC-62): > 100 µM (inactive)
- GI50 (OVCAR-4): > 100 µM (inactive)
- GI50 (RPMI-8226): > 100 µM (inactive)
- GI50 (CAKI-1): > 100 µM (inactive)
- GI50 (SNB-75): > 100 µM (inactive)
- GI50 (A498): > 100 µM (inactive)
- GI50 (LXFL 529): > 100 µM (inactive)
- GI50 (Malme-3M): > 100 µM (inactive)
- GI50 (SK-MEL-5): > 100 µM (inactive)
